Data from publication doi:10.1101/2025.08.13.670122v1 (bioRxiv, 2025).

What was measured:
Plasma stability = assay type: in vitro ADME; conditions: male Sprague-Dawley rat plasma, 6 μL of 1 mM compound (10% DMSO) in 27 μL plasma, 37°C, 0-24 h, UPLC-MS, one-phase decay, mean ± SEM of at least three experiments, read-out: Plasmatic half-life t1/2 (±SEM)
Method: The degradation was quenched by adding 140 μL of 1% formic acid in an acetonitrile-ethanol (1:1) solution containing 0.25 mM of N,N-dimethylbenzamide (used as an internal standard). This mixture was initially transferred to an Impact Protein Precipitation filter plate (Phenomenex, California), the filtrates from which were subsequently collected in a second 96-well UPLC plate. Both plates were centrifuged at 500 g for 10 min while maintaining a temperature of 4°C. The filtrates were then diluted with 30 μL of distilled water and processed for analysis using an Acquity UPLC-MS system class H (using an Acquity UPLC protein BEH C18 column that measured 2.1 mm × 50 mm and had 1.7 μm particles with pores 130 Å in width). The peptide half-life, derived from the degradation curve, was calculated using the exponential one-phase decay function in GraphPad Prism 9. Degradation was estimated by comparing the mass spectrum at each point with those at the zero-minute mark. The data were presented as a mean ± SEM of at least three unique experiments, each performed in singlicate.

AT1R = target: T1, AT1R (Homo sapiens, UniProt P30556); assay: Rho BRET sensor (PKN-RBD-RlucII/rGFP-CAAX) in ΔG12/13 HEK293 cells expressing AT1R; assay type: cell-based; parameters: expressed in transfected cells; host or cells: HEK293 cells, transient PEI transfection; conditions: for Emax Rho Gαq/11 (% AngII): ΔG12/13 HEK293/AT1R, Rho BRET sensor, response at 10 μM, normalised to AngII; for EC50: ΔG12/13 HEK293 cells expressing AT1R, Rho (PKN-RBD-RlucII/rGFP-CAAX) BRET sensor, 3 min stimulation, mean ± SEM of at least three to five independent experiments, SEM, read-out: EC50 Rho Gαq/11
T1 sequence (P30556 1-359): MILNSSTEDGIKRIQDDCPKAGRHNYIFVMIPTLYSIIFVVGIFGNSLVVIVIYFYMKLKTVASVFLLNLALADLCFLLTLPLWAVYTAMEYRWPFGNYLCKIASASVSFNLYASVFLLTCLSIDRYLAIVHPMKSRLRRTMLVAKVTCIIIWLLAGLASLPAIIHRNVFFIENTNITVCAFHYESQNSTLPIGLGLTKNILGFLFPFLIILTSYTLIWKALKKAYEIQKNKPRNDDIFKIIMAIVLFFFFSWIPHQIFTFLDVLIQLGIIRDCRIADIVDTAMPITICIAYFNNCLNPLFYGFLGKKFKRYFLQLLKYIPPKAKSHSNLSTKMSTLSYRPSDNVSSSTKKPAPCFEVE
Source text: We utilized a clonal cell line HEK293, referred to hereafter as HEK293 cells, which has been previously described.[7],[8] As a gracious gift from A. Inoue (Tohoku University, Sendai, Miyagi, Japan), CRISPR Gαq/11 and Gα12/13 knockout cell lines (ΔGq/11 and ΔG12/13, respectively), were derived as previously explained.[48] In brief, a CRISPR-Cas9 system was used to target either GNAQ and GNA11 or GNA12 and GNA13 genes in HEK293T cells simultaneously to generate the Gαq/11 and Gα12/13 knockout cell lines. For the production of adenovirus, we utilized HEK293A cells. All cells were grown in DMEM supplemented with 10% FBS and Penicillin-Streptomycin-L-Glutamine (10000 IU penicillin, 10000 µg/mL Streptomycin, 200 mM L-Glutamine) at 37°C in T175 flasks under a 5% CO2 humidified chamber. Periodic testing was carried out for mycoplasma contamination (ABM™, Mycoplasma PCR Detection kit). For all biosensors used, cells underwent transfection with the PEI reagent, employing a PEI:DNA ratio of 3:1. For the Gαq biosensor, HEK293 cells were transfected with the plasmids coding for Gαq-RLucII (120 ng), Gβ1 (3000 ng), Gγ1-GFP10 (3000 ng), human AT1 (3000 ng) and Salmon sperm DNA (SSD) (880 ng). For the β-arrestin2 recruitment assay, HEK293 cells were transfected with the plasmids coding for 120 ng β-arrestin-2-RLucII, 3000 ng AT1, 3000 ng rGFP-CAAX, and 3880 ng SSD. For the measurement of PKC, HEK293 cells were transfected with 3000 ng AT1, 600 ng PKC-c1b, and 6400 ng SSD. […] 100 µL of the cell/DNA mixture was added to white 96-well plates and incubated at 37°C at 5% CO2 for 48 h. For the Rho assay, ΔG12/13 cells were seeded at a density of 9,000 cells per well in poly-ornithine-coated white 96-well plates and transfected the following day. In brief, 1 μg of total DNA in 100 μL of PBS was mixed with 100 μL of PBS containing 3 μL of 1 mg/mL PEI. For Rho signaling, 150 ng of AT1R DNA with 25 ng of PKN-RBD-RlucII [8], and 100 ng of rGFP-CAAX were used. Empty pcDNA was used to reach 1 µg of the total DNA amount in 100 μL of PBS. The DNA was then mixed with 100 μL of PBS containing 3 μL of 1 mg/mL PEI. After a 20-min incubation, the DNA/PEI complexes were dispensed into cells in 96-well plates (15 µL/well), and the experiment was carried out 48 h post-transfection.
On the day of the experiment, each well was washed with 80 µL of Tyrode’s buffer (140 mM NaCl, 2.7 mM KCl, 1 mM CaCl2, 12 mM NaHCO3, 5.6 mM D-glucose, 0.5 mM MgCl2, 0.37 mM NaH2PO4, 25 mM Hepes (pH 7.4)). This was followed by incubation for 1 h in Tyrode’s buffer at room temperature. […] Cells were then stimulated with increasing doses of the indicated ligand, and BRET signals were measured using a Tristar2 (Berthold) microplate reader 10 min later. […] BRET signals were then measured using a Synergy2 (BioTek) microplate reader. […]

Row | half-life at 182 µM (Plasma stability) [min] | Emax Rho Gαq/11 (% AngII) (AT1R) | EC50 (AT1R) [nM] | SMILES
1 | 33 ± 4 | 105 | 2.3 ± 0.5 | CC[C@H](C)[C@H](NC(=O)[C@H](Cc1ccc(O)cc1)NC(=O)[C@@H](NC(=O)[C@H](CCCNC(=N)N)NC(=O)[C@@H](N)CC(=O)O)C(C)C)C(=O)N[C@@H](Cc1c[nH]cn1)C(=O)N1CCC[C@H]1C(=O)N[C@@H](Cc1ccc(OC)cc1)C(=O)O [compound 11]
2 | 32 ± 3 | 47 | 21 ± 5 | CC[C@H](C)[C@H](NC(=O)[C@H](Cc1ccc(O)cc1)NC(=O)[C@@H](NC(=O)[C@H](CCCNC(=N)N)NC(=O)[C@@H](N)CC(=O)O)C(C)C)C(=O)N[C@@H](Cc1c[nH]cn1)C(=O)N1CCC[C@H]1C(=O)N[C@@H](Cc1ccc(OCc2ccccc2)cc1)C(=O)O [compound 12]
